Our source for the TGI and GI50 values is PubChem BioAssay (NCI).

SMILES strings stand for the structures. Where “and” joins values, the source holds several entries; their conditions need not be identical. Equal entries are not always repeated.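 Five concentrations, 48 hours, 96-well plates. The concentration for 50% growth inhibition is given as GI50. TGI: total growth inhibition.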 Some results are limits rather than exact numbers.

One assay relates to MDA-N. The experiment in a line: growth of human tumour cells (NCI), 48 h.
As for `O=C(Nn1c(-c2ccccc2)nc2ccccc2c1=O)c1ccc(Cl)cc1`, the TGI is greater than 100 µM.

For the compound `CC(=O)c1ccc(N=NN2CCCC2)cc1`, the TGI is greater than 100 µM.

With `CSC(=O)/C=C1\SS/C(=C\C(=O)SC)S1`, the TGI came to 8.37 µM.

Compound `NCCOc1cccc(C2(N3CCCCC3)CCCCC2)c1` gave a TGI of 33.3 µM.

Compound `CC(N)(CC(O)(C(F)(F)Cl)C(F)(F)Cl)C(=O)O` (stereo not given) registered a TGI greater than 10 µM.

Take `NC1=NC2(COC(c3ccccc3)(c3ccccc3)c3ccccc3)OC(COC(c3ccccc3)(c3ccccc3)c3ccccc3)C(O)C2O1` (stereo not given): the TGI is greater than 100 µM.

`CCCCCCCCCCCCCCCCCCNc1ccn(C2OC(COP(=O)(O)OCC3OC(n4ccc(N)nc4=O)C(O)C3O)C(O)C2O)c(=O)n1` (stereo not given): the TGI was greater than 100 µM.

In turn, `CCOc1cnc(C(O)(c2ccccc2)c2ccccc2)o1` registered a TGI greater than 100 µM.

Compound `COC(CN(C)C(=S)Nc1cccc2ccccc12)OC` returned a TGI greater than 10 µM.

`CC(=O)c1ccc(Nc2c3c(nc4ccccc24)CCCC3)cc1` yielded a TGI of 11.2 µM.

With `CCN1CCC(O)(c2ccc([N+](=O)[O-])cc2)C(C(=O)c2ccc([N+](=O)[O-])cc2)C1` (stereo not given), the TGI was 39.1 µM.

The compound `S=C1Cc2c(-c3ccccc3)cc(-c3cccc(Cl)c3)nc2-c2ccccc2N1` came in with a TGI of 26.5 µM.

In turn, `O=C(CCc1cc(O)cc(O)c1)NCCc1cc(O)cc(OCc2ccccc2)c1` registered a TGI greater than 100 µM.

The compound `N#Cc1c(NC(=O)C(F)(F)F)sc2c3c(=O)c4ccccc4c(=O)c=3oc3ccccc3c12` returned a TGI of 36.5 µM.

In turn, `O=C1CC(O)c2cscc21` (stereo not given) showed a TGI greater than 100 µM.

`COc1ccc(OC)c2sc(N3C(=O)/C(=C/c4cccc(Oc5ccccc5)c4)N=C3c3ccccc3)nc12` yielded a TGI greater than 100 µM.

Regarding `C[C@@H](CC(=O)OCc1ccccc1)OC1OC(COC(=O)C(C)(C)C)C(OC(=O)C(C)(C)C)C(OC(=O)C(C)(C)C)C1OC(=O)C(C)(C)C` (stereo not given in full), the TGI is greater than 100 µM.

The compound `C=C1CC[C@@H](CCC2CCC3(OC2)O[C@]2(O)CC[C@@]3(C)OC2(C)C)C(C)(C)[C@H]1C/C=C1\CCOC1=O` (stereo not given in full) registered a TGI greater than 100 µM.

`Cc1nc2c(sc3nc4c(cc32)CCC4)c(=O)o1` returned a TGI greater than 100 µM.

`Cc1ccc(OCC2OC(n3cnc4c(Cl)nc(Nc5cc(Cl)cc(Cl)c5)nc43)CC2Oc2ccc(C)cc2)cc1` (stereo not given) came in with a TGI greater than 100 µM.

In turn, `O=[N+]([O-])c1cccc2nc3ccccc3c(NCCCCCNc3c4ccccc4nc4cccc([N+](=O)[O-])c34)c12` came in with a TGI of 0.191 µM.

For `COC(=O)c1c(C)cccc1/C=C1\Cc2ccc(C)c(C)c2C1=O`, the TGI is greater than 100 µM.

On to `COc1ccccc1C1c2cc3c(cc2OC2(OC)COC(=O)C12)OCO3` (stereo not given), for which the TGI was 5.51 µM.

In turn, `COc1ccc(/C(Nc2ccccc2)=C(\CCl)c2ccccc2)cc1OC` had a TGI greater than 100 µM.

As for `O=S(=O)(/N=C(\NO)Nc1ccc(Cl)cc1)c1cc(C(F)(F)F)cc(C(F)(F)F)c1`, the TGI came to 36.1 µM.

The next assay has as its system M19-MEL melanoma. Nature of the assay: growth of human tumour cells (NCI), 48 h.
In turn, `C1CSCCSCCCS[C@@H]2CCCCC2SC1` (stereo not given in full) returned a TGI greater than 100 µM.

A further assay has as its system UACC-62 melanoma. Nature of the assay: growth of human tumour cells (NCI), 48 h.
As for `C1CSCCSCCCS[C@@H]2CCCCC2SC1` (stereo not given in full), the TGI was greater than 100 µM.

Compound `COC(=O)[C@H](Cc1ccccc1)NC(=O)c1ccc(CNC(=O)/C=C/c2csc(-c3ccccc3)n2)cc1` registered a TGI of 31.1 µM.

In turn, `CCN(/C=C1/C(=O)C(c2ccccc2)N(c2ccccc2)C1=O)CC` (stereo not given) registered a TGI greater than 10 µM.

Turning to `COC(=O)C1CCC(=O)N1CN(C(C)=O)c1cccc(O)c1` (stereo not given), the TGI was greater than 100 µM.

`COc1ccc(-c2oc3cc(-c4cc5oc(-c6ccc(OC)cc6)c(-c6ccc(OC)cc6)c5cc4OC)c(OC)cc3c2-c2ccc(OC)cc2)cc1` yielded a TGI greater than 100 µM.

`CCOC(=O)c1c(NC(=O)c2ccccc2)c(C#N)c2n1CCCCC2`: the TGI is greater than 100 µM.

The compound `O=c1cc(Nc2cccc(O)c2)[nH]c(=O)[nH]1` returned a TGI greater than 100 µM.

`c1cc(-c2ccc(-c3ccsc3)s2)cs1`: the TGI is greater than 100 µM.

On to `O=C(Nn1c(-c2ccccc2)nc2ccccc2c1=O)c1ccc(Cl)cc1`, for which the TGI was greater than 100 µM.

`CC(=O)c1ccc(N=NN2CCCC2)cc1` showed a TGI greater than 100 µM.

`CSC(=O)/C=C1\SS/C(=C\C(=O)SC)S1` displayed a TGI of 2.87 µM.

In turn, `NCCOc1cccc(C2(N3CCCCC3)CCCCC2)c1` showed a TGI of 44.2 µM.

`CC(N)(CC(O)(C(F)(F)Cl)C(F)(F)Cl)C(=O)O` (stereo not given) showed a TGI greater than 10 µM.

In the case of `NC1=NC2(COC(c3ccccc3)(c3ccccc3)c3ccccc3)OC(COC(c3ccccc3)(c3ccccc3)c3ccccc3)C(O)C2O1` (stereo not given), the TGI is greater than 100 µM.

Consider `CCCCCCCCCCCCCCCCCCNc1ccn(C2OC(COP(=O)(O)OCC3OC(n4ccc(N)nc4=O)C(O)C3O)C(O)C2O)c(=O)n1` (stereo not given), for which the TGI was greater than 100 µM.

The compound `CCOc1cnc(C(O)(c2ccccc2)c2ccccc2)o1` showed a TGI greater than 100 µM.

Compound `COC(CN(C)C(=S)Nc1cccc2ccccc12)OC` displayed a TGI greater than 10 µM.

On to `CC(=O)c1ccc(Nc2c3c(nc4ccccc24)CCCC3)cc1`, for which the TGI was greater than 56 µM.

`CCN1CCC(O)(c2ccc([N+](=O)[O-])cc2)C(C(=O)c2ccc([N+](=O)[O-])cc2)C1` (stereo not given) had a TGI of 33 µM.

Compound `S=C1Cc2c(-c3ccccc3)cc(-c3cccc(Cl)c3)nc2-c2ccccc2N1` yielded a TGI of 5.36 µM.

Regarding `O=C(CCc1cc(O)cc(O)c1)NCCc1cc(O)cc(OCc2ccccc2)c1`, the TGI was greater than 100 µM.

On to `N#Cc1c(NC(=O)C(F)(F)F)sc2c3c(=O)c4ccccc4c(=O)c=3oc3ccccc3c12`, for which the TGI was 26 µM.

In the case of `O=C1CC(O)c2cscc21` (stereo not given), the TGI was greater than 100 µM.

Regarding `COc1ccc(OC)c2sc(N3C(=O)/C(=C/c4cccc(Oc5ccccc5)c4)N=C3c3ccccc3)nc12`, the TGI is greater than 100 µM.

On to `C[C@@H](CC(=O)OCc1ccccc1)OC1OC(COC(=O)C(C)(C)C)C(OC(=O)C(C)(C)C)C(OC(=O)C(C)(C)C)C1OC(=O)C(C)(C)C` (stereo not given in full), for which the TGI was greater than 100 µM.

For the compound `C=C1CC[C@@H](CCC2CCC3(OC2)O[C@]2(O)CC[C@@]3(C)OC2(C)C)C(C)(C)[C@H]1C/C=C1\CCOC1=O` (stereo not given in full), the TGI was greater than 100 µM.

`Cc1nc2c(sc3nc4c(cc32)CCC4)c(=O)o1` showed a TGI greater than 100 µM.

In turn, `Cc1ccc(OCC2OC(n3cnc4c(Cl)nc(Nc5cc(Cl)cc(Cl)c5)nc43)CC2Oc2ccc(C)cc2)cc1` (stereo not given) had a TGI greater than 100 µM.

Turning to `O=[N+]([O-])c1cccc2nc3ccccc3c(NCCCCCNc3c4ccccc4nc4cccc([N+](=O)[O-])c34)c12`, the GI50 was 0.0351 µM; the TGI is 0.303 µM and 0.307 µM.

In turn, `COC(=O)c1c(C)cccc1/C=C1\Cc2ccc(C)c(C)c2C1=O` gave a TGI greater than 100 µM.

As to `COc1ccccc1C1c2cc3c(cc2OC2(OC)COC(=O)C12)OCO3` (stereo not given), the TGI was determined as 60.1 µM.

`COc1ccc(/C(Nc2ccccc2)=C(\CCl)c2ccccc2)cc1OC`: the TGI was greater than 100 µM.

`O=S(=O)(/N=C(\NO)Nc1ccc(Cl)cc1)c1cc(C(F)(F)F)cc(C(F)(F)F)c1` showed a TGI of 30.7 µM.
